# Test results as given in ChEMBL document CHEMBL1128998, “Chemical synthesis, DNA cleavage and antitumor activity of molecules with (Z)-7-sulfonyl-3-hexene-1,5-diyne functionalities” (Bioorg Med Chem Lett, 1996).
# Columns and labels:
# Assay type in all cases: functional, cell-based
# Conditions in all cases: Homo sapiens
# [1] = tested on: HepG2; assay: Compound was tested in vitro for growth inhibition of Hep G2, […] cell line.
# [2] = tested on: COLO 205; assay: Compound was tested in vitro for growth inhibition of COLO 205, colon cell line; Range=4-10 ug/ml
# [3] = tested on: SK-BR-3; assay: Compound was tested in vitro for growth inhibition of SK-BR-3, breast adenocarcinoma cell line; Range=4-10 ug/ml
# [4] = tested on: KB; assay: Compound was tested in vitro for growth inhibition of KB, oral epidermoid cell line; Range=4-10 ug/ml
# [5] = tested on: MOLT-4; assay: Compound was tested in vitro for growth inhibition of Molt-4, leukemia cell line.
# [6] = tested on: HepG2; assay: Compound was tested in vitro for growth inhibition of Hep G2, […] cell line
# [7] = tested on: KB; assay: Compound was tested in vitro for growth inhibition of KB, oral epidermoid cell line.
# [8] = tested on: HepG2; assay: Compound was tested in vitro for growth inhibition of Hep G2, […] cell line; Range=4-10 ug/ml
# [9] = tested on: COLO 205; assay: Compound was tested in vitro for growth inhibition of COLO 205, colon cell line.
# [10] = tested on: SK-BR-3; assay: Compound was tested in vitro for growth inhibition of SK-BR-3, […] cell line.
IC50 [1],IC50 [2],IC50 [3],IC50 [4],IC50 [5],IC50 [6],IC50 [7],IC50 [8],IC50 [9],IC50 [10],SMILES
> 10 mg/L,10 mg/L,10 mg/L,10 mg/L,,,,,,,COC(=O)c1ccccc1S(=O)(=O)CC#C/C=C\C#CCO
> 10 mg/L,10 mg/L,10 mg/L,10 mg/L,< 4 mg/L,,,,,,O=S(=O)(CC#C/C=C\C#CCO)c1ccc2ccccc2c1
,10 mg/L,10 mg/L,10 mg/L,,> 10 mg/L,,,,,O=S(=O)(CC#C/C=C\C#CCO)c1ccccc1
,10 mg/L,10 mg/L,,< 4 mg/L,,10 mg/L,10 mg/L,,,O=S(=O)(CC#Cc1cc2ccccc2cc1C#CCO)c1ccccc1
,,,,< 4 mg/L,,10 mg/L,10 mg/L,< 4 mg/L,< 4 mg/L,O=S(=O)(CC#Cc1ccccc1C#CCO)c1ccccc1
< 4 mg/L,,,,,,,,,,O=S(=O)(CC#Cc1ccccc1C#CCO)c1ccc2ccccc2c1
> 10 mg/L,10 mg/L,10 mg/L,10 mg/L,,,,,,,COc1ccc(S(=O)(=O)CC#C/C=C\C#CCO)cc1
